Molecules are shown by their SMILES. Converted amounts (≈) assume the structure as drawn.

The source of these data is ChEMBL document CHEMBL1154544, “Antitumour polyether macrolides: four new halichondrins from the New Zealand deep-water marine sponge Lissodendoryx sp” (Bioorg Med Chem, 2009).

This assay relates to P388. In words: Cytotoxicity against mouse P388 cells. The format is functional, cell-based.
`C=C1C[C@@H]2CC[C@@]34C[C@H]5O[C@H]6[C@@H](O3)[C@H]3O[C@H](CC[C@@H]3O[C@H]6[C@H]5O4)CC(=O)O[C@@H]3[C@@H](C)[C@@H]4O[C@@H]5C[C@]6(C[C@@H]7O[C@]8(C[C@H](C)[C@@H]9O[C@@H]%10CC(=O)O[C@@H]%10C[C@@H]9O8)C[C@H](C)[C@@H]7O6)O[C@@H]5C[C@@H]4O[C@H]3C[C@H]3O[C@@H](CC[C@@H]1O2)C[C@@H](C)C3=C`: it took 1.1 ng/mL (≈ 1.02 nM) to reach half-maximal inhibition (IC50).

As to `C=C1C[C@@H]2CC[C@@]34C[C@H]5O[C@H]6[C@@H](O3)[C@H]3O[C@H](CC[C@@H]3O[C@H]6[C@H]5O4)CC(=O)O[C@@H]3[C@@H](C)[C@@H]4O[C@@H]5C[C@]6(C[C@@H]7O[C@]8(C[C@H](C)[C@@H]9OC(=O)C[C@@H]9O8)C[C@H](C)[C@@H]7O6)O[C@@H]5C[C@@H]4O[C@H]3C[C@H]3O[C@@H](CC[C@@H]1O2)C[C@@H](C)C3=C`, the IC50 was 1.1 ng/mL (≈ 1.08 nM).

`C=C1C[C@@H]2CC[C@@]34C[C@H]5O[C@H]6[C@@H](O3)[C@H]3O[C@H](CC[C@@H]3O[C@H]6[C@H]5O4)CC(=O)O[C@@H]3[C@@H](C)[C@@H]4O[C@@H]5C[C@]6(C[C@@H]7O[C@]8(C[C@H](C)[C@@H]9O[C@@H]%10CC(C(O)CCl)O[C@@H]%10C[C@@H]9O8)C[C@H](C)[C@@H]7O6)O[C@@H]5C[C@@H]4O[C@H]3C[C@H]3O[C@@H](CC[C@@H]1O2)C[C@@H](C)C3=C` (some centres not stated) registered an IC50 of 2 ng/mL (≈ 1.75 nM).

Turning to `C=C1C[C@@H]2CC[C@@]34C[C@H]5O[C@H]6[C@@H](O3)[C@H]3O[C@H](CC[C@@H]3O[C@H]6[C@H]5O4)CC(=O)O[C@@H]3[C@@H](C)[C@@H]4O[C@@H]5C[C@]6(C[C@@H]7O[C@]8(C[C@H](C)[C@@H]9O[C@H](CC(C)=O)[C@H](O)C[C@@H]9O8)C[C@H](C)[C@@H]7O6)O[C@@H]5C[C@@H]4O[C@H]3C[C@H]3O[C@@H](CC[C@@H]1O2)C[C@@H](C)C3=C`, the IC50 stood at 0.76 ng/mL (≈ 0.695 nM). This IC50 is about 2.6-fold lower than that of the compound before.

In the case of `C=C1C[C@@H]2CC[C@@]34C[C@H]5O[C@H]6[C@@H](O3)[C@H]3O[C@H](CC[C@@H]3O[C@H]6[C@H]5O4)CC(=O)O[C@@H]3[C@@H](C)[C@@H]4O[C@@H]5C[C@]6(C[C@@H]7O[C@]8(C[C@H](C)[C@@H]9O[C@H]([C@@H](O)C[C@@H](O)CO)C[C@@H]9O8)C[C@H](C)[C@@H]7O6)O[C@@H]5C[C@@H]4O[C@H]3C[C@H]3O[C@@H](CC[C@@H]1O2)C[C@@H](C)C3=C` [HALICHONDRIN B], 0.78 ng/mL (≈ 0.702 nM) corresponded to half-maximal inhibition (IC50).

Take `C=C1C[C@@H]2CC[C@@]34C[C@H]5O[C@H]6[C@@H](O3)[C@H]3O[C@H](CC[C@@H]3O[C@H]6[C@H]5O4)CC(=O)O[C@@H]3[C@@H](C)[C@@H]4O[C@@H]5C[C@]6(C[C@@H]7O[C@]8(C[C@H](C)[C@@H]9O[C@@H]%10CC(C(O)CO)O[C@@H]%10C[C@@H]9O8)C[C@H](C)[C@@H]7O6)O[C@@H]5C[C@@H]4O[C@H]3C[C@H]3O[C@@H](CC[C@@H]1O2)C[C@@H](C)C3=C` (some centres not stated) [HOMOHALICHONDRIN B]: it took 0.22 ng/mL (≈ 0.196 nM) to reach half-maximal inhibition (IC50).

Compound `C=C1C[C@@H]2CC[C@@]34C[C@H]5O[C@H]6[C@@H](O3)[C@H]3O[C@H](CC[C@@H]3O[C@H]6[C@H]5O4)CC(=O)O[C@@H]3[C@@H](C)[C@@H]4O[C@@H]5C[C@]6(C[C@@H]7O[C@]8(C[C@H](C)[C@@H]9O[C@H](CC(=O)CCO)[C@H](O)C[C@@H]9O8)C[C@H](C)[C@@H]7O6)O[C@@H]5C[C@@H]4O[C@H]3C[C@H]3O[C@@H](CC[C@@H]1O2)C[C@@H](C)C3=C` [ISOHOMOHALICHONDRIN B] came in with an IC50 of 0.18 ng/mL (≈ 0.16 nM).
